The values below come from patent US9682983B2, “BMP inhibitors and methods of use thereof” (THE BRIGHAM AND WOMEN'S HOSPITAL, INC., priority 2013, dated 2017).

human ALK2, sequence (Q04771 21-509): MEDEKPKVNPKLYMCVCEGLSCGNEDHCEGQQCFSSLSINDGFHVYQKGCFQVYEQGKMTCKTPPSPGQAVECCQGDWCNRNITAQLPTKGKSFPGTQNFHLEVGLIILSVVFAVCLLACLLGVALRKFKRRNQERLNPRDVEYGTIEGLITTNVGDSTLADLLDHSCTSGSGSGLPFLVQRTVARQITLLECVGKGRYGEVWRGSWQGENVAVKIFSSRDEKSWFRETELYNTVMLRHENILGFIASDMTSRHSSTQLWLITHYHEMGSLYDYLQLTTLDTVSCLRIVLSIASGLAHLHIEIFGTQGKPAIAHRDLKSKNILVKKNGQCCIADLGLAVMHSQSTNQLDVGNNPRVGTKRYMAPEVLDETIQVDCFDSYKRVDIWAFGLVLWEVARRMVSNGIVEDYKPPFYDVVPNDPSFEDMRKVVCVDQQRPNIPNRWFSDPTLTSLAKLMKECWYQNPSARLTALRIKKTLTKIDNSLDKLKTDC

The assay concerns the target human ALK2 (Homo sapiens (Human), UniProt Q04771). The experiment in a line: LANCE Ultra ULight enzymatic assay (FOP Enzymatic Assay), ALK2. The format is biochemical. Particulars: read-out: ALK2 IC50 (nM) at 10 μM ATP; 10 μM ATP. For orientation: TR-FRET usually uses a lanthanide donor and a delayed reading to cut background.
The IC50 is the midpoint of a concentration-inhibition curve. With `c1ccc2c(-c3cnn4cc(-c5ccc(N6CCNCC6)cn5)cnc34)ccnc2c1` [Compound 3], the IC50 turned out to be 16 nM.

Turning to `C(#Cc1cnc2c(-c3ccnc4ccccc34)cnn2c1)CN1CCNCC1` [Compound 4, 4-(6-(3-(piperazin-1-yl)prop-1-ynyl)pyrazolo[1,5-a]pyrimidin-3-yl)quinoline], the IC50 is 68 nM.

With `c1ccc2c(-c3cnn4cc(-c5cnc(N6CCNCC6)nc5)cnc34)ccnc2c1` [Compound 5, 4-(6-(2-(piperazin-1-yl)pyrimidin-5-yl)pyrazolo[1,5-a]pyrimidin-3-yl)quinoline], the IC50 is 103 nM.

As to `c1ccc2c(-c3cnn4cc(-c5ccc(N6C[C@@H]7C[C@H]6CN7)cc5)cnc34)ccnc2c1` [Compound 6, 4-(6-(4-((1S,4S)-2,5-diazabicyclo[2.2.1]heptan-2-yl)phenyl)pyrazolo[1,5-a]pyrimidin-3-yl)quinoline], the IC50 was determined as 12 nM.

Regarding `c1ccc2c(-c3cnn4cc(-c5ncc(N6CCNCC6)s5)cnc34)ccnc2c1` [Compound 7, 5-(piperazin-1-yl)-2-(3-(quinolin-4-yl)pyrazolo[1,5-a]pyrimidin-6-yl)thiazole], the IC50 is 19 nM.

As for `Clc1cc(-c2cnn3cc(-c4ccc(N5CCNCC5)cc4)cnc23)c2ccccc2n1` [Compound 8, 2-chloro-4-(6-(4-(piperazin-1-yl)phenyl)pyrazolo[1,5-a]pyrimidin-3-yl)quinoline], the IC50 amounted to 24 nM.

As to `Oc1cc(-c2cnn3cc(-c4ccc(N5CCNCC5)cc4)cnc23)c2ccccc2n1` [Compound 9, 4-(6-(4-(piperazin-1-yl)phenyl)pyrazolo[1,5-a]pyrimidin-3-yl)quinolin-2-ol], the IC50 amounted to 792 nM.

Take `Cc1cc(-c2cnn3cc(-c4ccc(N5[C@H](C)CNC[C@@H]5C)cc4)cnc23)c2ccccc2n1` [Compound 11, 4-(6-(4-((2R,6S)-2,6-dimethylpiperazin-1-yl)phenyl)pyrazolo[1,5-a]pyrimidin-3-yl)-2-methylquinoline]: the IC50 was 7.7 nM.

As for `OCCNCc1ccc2c(-c3cnn4cc(-c5ccc(N6CCNCC6)cc5)cnc34)ccnc2c1` [Compound 14, 2-(((4-(6-(4-(piperazin-1-yl)phenyl)pyrazolo[1,5-a]pyrimidin-3-yl)quinolin-7-yl)methyl)amino)ethanol], the IC50 came to 517 nM.

As for `NC(=O)c1ccc2c(-c3cnn4cc(-c5ccc(N6CCNCC6)cc5)cnc34)ccnc2c1` [Compound 15, 4-(6-(4-(piperazin-1-yl)phenyl)pyrazolo[1,5-a]pyrimidin-3-yl)quinoline-7-carboxamide], the IC50 was 127 nM.

On to `OCc1ccc2c(-c3cnn4cc(-c5ccc(N6CCNCC6)cc5)cnc34)ccnc2c1` [Compound 16, (4-(6-(4-(piperazin-1-yl)phenyl)pyrazolo[1,5-a]pyrimidin-3-yl)quinolin-7-yl)methanol], for which the IC50 worked out at 102 nM.

With `CNCc1ccc2c(-c3cnn4cc(-c5ccc(N6CCNCC6)cc5)cnc34)ccnc2c1` [Compound 18, N-methyl-1-(4-(6-(4-(piperazin-1-yl)phenyl)pyrazolo[1,5-a]pyrimidin-3-yl)quinolin-7-yl)methanamine], the IC50 was determined as 906 nM.

Take `CN(C)Cc1ccc2c(-c3cnn4cc(-c5ccc(N6CCNCC6)cc5)cnc34)ccnc2c1` [Compound 19, N,N-dimethyl-1-(4-(6-(4-(piperazin-1-yl)phenyl)pyrazolo[1,5-a]pyrimidin-3-yl)quinolin-7-yl)methanamine]: the IC50 is 407 nM.

In the case of `NCc1ccc2c(-c3cnn4cc(-c5ccc(N6CCNCC6)cc5)cnc34)ccnc2c1` [Compound 20, (4-(6-(4-(piperazin-1-yl)phenyl)pyrazolo[1,5-a]pyrimidin-3-yl)quinolin-7-yl)methanamine], the IC50 was 706 nM.

`c1cc(-c2cnn3cc(-c4ccc(N5CCNCC5)cc4)cnc23)c2ccc(CN3CCCC3)cc2n1` [Compound 21, 4-(6-(4-(piperazin-1-yl)phenyl)pyrazolo[1,5-a]pyrimidin-3-yl)-7-(pyrrolidin-1-ylmethyl)quinoline]: the IC50 turned out to be 2140 nM.

Consider `O=C(O)c1cccc2c(-c3cnn4cc(-c5ccc(N6CCNCC6)cc5)cnc34)ccnc12` [Compound 22, 4-(6-(4-(piperazin-1-yl)phenyl)pyrazolo[1,5-a]pyrimidin-3-yl)quinoline-8-carboxylic acid], for which the IC50 was 88 nM.

As to `NC(=O)c1cccc2c(-c3cnn4cc(-c5ccc(N6CCNCC6)cc5)cnc34)ccnc12` [Compound 23, 4-(6-(4-(piperazin-1-yl)phenyl)pyrazolo[1,5-a]pyrimidin-3-yl)quinoline-8-carboxamide], the IC50 came to 26 nM.

In the case of `OCc1cccc2c(-c3cnn4cc(-c5ccc(N6CCNCC6)cc5)cnc34)ccnc12` [Compound 24, (4-(6-(4-(piperazin-1-yl)phenyl)pyrazolo[1,5-a]pyrimidin-3-yl)quinolin-8-yl)methanol], the concentration for half-maximal inhibition (IC50) was determined as 62 nM.

With `NCc1cccc2c(-c3cnn4cc(-c5ccc(N6CCNCC6)cc5)cnc34)ccnc12` [Compound 25, (4-(6-(4-(piperazin-1-yl)phenyl)pyrazolo[1,5-a]pyrimidin-3-yl)quinolin-8-yl)methanamine], the IC50 was found to be 482 nM.

On to `CC(=O)Nc1ccc2c(-c3cnn4cc(-c5ccc(N6CCNCC6)cc5)cnc34)ccnc2c1` [Compound 26, N-(4-(6-(4-(piperazin-1-yl)phenyl)pyrazolo[1,5-a]pyrimidin-3-yl)quinolin-7-yl)acetamide], for which the IC50 is 105 nM.

As to `Nc1ccc2c(-c3cnn4cc(-c5ccc(N6CCNCC6)cc5)cnc34)ccnc2c1` [Compound 27, 4-(6-(4-(piperazin-1-yl)phenyl)pyrazolo[1,5-a]pyrimidin-3-yl)quinolin-7-amine], the IC50 is 44 nM.

Take `Oc1ccc2c(-c3cnn4cc(-c5ccc(N6CCNCC6)cc5)cnc34)ccnc2c1` [Compound 28, 4-(6-(4-(piperazin-1-yl)phenyl)pyrazolo[1,5-a]pyrimidin-3-yl)quinolin-7-ol]: the IC50 was 31 nM.

Consider `c1cc(-c2cnn3cc(-c4ccc(OCCN5CCCCC5)nc4)cnc23)c2cccnc2c1` [Compound 29, 5-(6-(6-(2-(piperidin-1-yl)ethoxy)pyridin-3-yl)pyrazolo[1,5-a]pyrimidin-3-yl)quinoline], for which the half-maximal inhibitory concentration (IC50) turned out to be 127 nM.

Regarding `c1cc(-c2cnn3cc(-c4ccc(N5CCNCC5)nc4)cnc23)c2cccnc2c1` [Compound 30, 5-(6-(6-(piperazin-1-yl)pyridin-3-yl)pyrazolo[1,5-a]pyrimidin-3-yl)quinoline], the IC50 was found to be 84 nM.

On to `c1cc(-c2cnn3cc(-c4ccc(OCCN5CCCCC5)cc4)cnc23)c2cccnc2c1` [Compound 31, 5-(6-(4-(2-(piperidin-1-yl)ethoxy)phenyl)pyrazolo[1,5-a]pyrimidin-3-yl)quinoline], for which the IC50 turned out to be 38 nM.

`CC(C)(CN1CCCCC1)Oc1ccc(-c2cnc3c(-c4cccc5ncccc45)cnn3c2)cc1` [Compound 32, 5-(6-(4-((2-methyl-1-(piperidin-1-yl)propan-2-yl)oxy)phenyl)pyrazolo[1,5-a]pyrimidin-3-yl)quinoline]: the half-maximal inhibitory concentration (IC50) worked out at 106 nM.

As to `C[C@@H]1CNC[C@H](C)N1c1ccc(-c2cnc3c(-c4ccnc5ccccc45)cnn3c2)cn1` [Compound 33, 4-(6-(6-((2R,6S)-2,6-dimethylpiperazin-1-yl)pyridin-3-yl)pyrazolo[1,5-a]pyrimidin-3-yl)quinoline], the IC50 is 22 nM.

For the compound `C[C@@H]1CNC[C@H](C)N1c1ccc(-c2cnc3c(-c4cccc5ncccc45)cnn3c2)cn1` [Compound 34], the IC50 came to 56 nM.

Consider `Clc1cc(-c2cnc3c(-c4ccnc5ccccc45)cnn3c2)ccc1N1CCNCC1` [Compound 35, 4-(6-(3-chloro-4-(piperazin-1-yl)phenyl)pyrazolo[1,5-a]pyrimidin-3-yl)quinoline], for which the IC50 is 30 nM.

`Clc1cc(-c2cnc3c(-c4cccc5ncccc45)cnn3c2)ccc1N1CCNCC1` [Compound 36, 5-(6-(3-chloro-4-(piperazin-1-yl)phenyl)pyrazolo[1,5-a]pyrimidin-3-yl)quinoline]: the IC50 came out at 46 nM.

On to `N#Cc1cc(-c2cnc3c(-c4ccnc5ccccc45)cnn3c2)ccc1N1CCNCC1` [Compound 37, 2-(piperazin-1-yl)-5-(3-(quinolin-4-yl)pyrazolo[1,5-a]pyrimidin-6-yl)benzonitrile], for which the IC50 turned out to be 24 nM.

`N#Cc1cc(-c2cnc3c(-c4cccc5ncccc45)cnn3c2)ccc1N1CCNCC1` [Compound 38]: the IC50 stood at 47 nM.

With `Fc1cc(-c2cnc3c(-c4ccnc5ccccc45)cnn3c2)ccc1N1CCNCC1` [Compound 39], the 50% inhibitory concentration (IC50) came out at 15 nM.

Take `Fc1cc(-c2cnc3c(-c4cccc5ncccc45)cnn3c2)ccc1N1CCNCC1` [Compound 40]: the IC50 stood at 32 nM.

`c1ccc2c(-c3cnn4cc(-c5ccc(OCCN6CCNCC6)nc5)cnc34)ccnc2c1` [Compound 41, 4-(6-(6-(2-(piperazin-1-yl)ethoxy)pyridin-3-yl)pyrazolo[1,5-a]pyrimidin-3-yl)quinoline]: the IC50 stood at 22 nM.

Turning to `c1cc(-c2cnn3cc(-c4ccc(OCCN5CCNCC5)nc4)cnc23)c2cccnc2c1` [Compound 42, 5-(6-(6-(2-(piperazin-1-yl)ethoxy)pyridin-3-yl)pyrazolo[1,5-a]pyrimidin-3-yl)quinoline], the concentration for half-maximal inhibition (IC50) was determined as 14 nM.

On to `CN1CCN(CCOc2ccc(-c3cnc4c(-c5ccnc6ccccc56)cnn4c3)cn2)CC1` [Compound 43, 4-(6-(6-(2-(4-methylpiperazin-1-yl)ethoxy)pyridin-3-yl)pyrazolo[1,5-a]pyrimidin-3-yl)quinoline], for which the IC50 came out at 122 nM.

Turning to `CN1CCN(CCOc2ccc(-c3cnc4c(-c5cccc6ncccc56)cnn4c3)cn2)CC1` [Compound 44, 5-(6-(6-(2-(4-methylpiperazin-1-yl)ethoxy)pyridin-3-yl)pyrazolo[1,5-a]pyrimidin-3-yl)quinoline], the IC50 was 17 nM.

Consider `Clc1cc(-c2cnc3c(-c4ccnc5ccccc45)cnn3c2)ccc1OCCN1CCCCC1` [Compound 45, 4-(6-(3-chloro-4-(2-(piperidin-1-yl)ethoxy)phenyl)pyrazolo[1,5-a]pyrimidin-3-yl)quinoline], for which the half-inhibitory concentration (IC50) stood at 56 nM.

With `Clc1cc(-c2cnc3c(-c4cccc5ncccc45)cnn3c2)ccc1OCCN1CCCCC1` [Compound 46], the IC50 was found to be 16 nM.
